Laboratory results published in patent US10323013B2, “Inhibitors of the IRE-1/XBP-1 pathway and methods of using thereof” (H. LEE MOFFITT CANCER CENTER AND RESEARCH INSTITUTE, INC., priority 2013, dated 2019).
Values joined by “and” are separate entries in the source; they are usually repeats but may differ in a detail not shown here. Equal values may be shown once. Read-outs that look alike come from different tables or passages of the source. One block for each molecule: values may come before it.

Legend:
primary human CLL cells = assay: Cell proliferation XTT assay, primary human CLL cells; assay type: cell-based; conditions: primary human CLL cells, 50 μM, 3 days
Procedure: (§1) Eμ-TCL1, MEC1, MEC2, WaC3, or primary human CLL cells were grown in 96-well cell culture plates overnight and then treated with fresh phenol red-free culture medium containing STF-083010 (50 μM), A-I06 (50 μM), A-I07 (50 μM) or fludarabine (30 μM). […] Briefly, 50 μl XTT labeling reagent was combined with 100 μl electron-coupling reagent, and the mixture was applied to each well of the 96-well plates. The test was based on cleavage of the yellow tetrazolium salt XTT by mitochondrial dehydrogenases of the metabolic active cells to form the orange formazan compound, which can be spectrophotometrically quantified at 492 nm using a BioTek microplate reader.

XBP-1s expression = assay: Inhibition of XBP-1s expression in LPS-stimulated mouse B cells (immunoblots); assay type: cell-based; conditions: for inhibition of XBP-1s expression (in words): LPS 48 h, then inhibitor 20 μM for 24 h (Example 3 prints 20 mM); for inhibition of XBP-1 expression (in words): inhibitor 50 μM (b479 prints 50 mM), also Eμ-TCL1 CLL and WaC3 cells
Procedure: The protein concentrations of the supernatants were determined by BCA assay (Pierce). […] Proteins were transferred to nitrocellulose membranes, blocked in 5% milk (wt/vol in PBS), and immunoblotted with the indicated antibodies and appropriate horseradish peroxidase-conjugated secondary antibodies. Following multiple washes in PBS, the blots were developed using Western Lighting Chemiluminescence Reagent (Perkin-Elmer).
Protein concentrations were determined by BCA assays (Pierce). […] Proteins were transferred to nitrocellulose membranes, blocked in 5% non-fat milk (wt/vol in PBS), and immunoblotted with indicated primary antibodies and appropriate horseradish peroxidase-conjugated secondary antibodies. Immunoblots were developed using Western Lighting Chemiluminescence Reagent (Perkin-Elmer).

Eμ-TCL1 CLL cells [1] = assay: Cell proliferation XTT assay, Eμ-TCL1 CLL cells; assay type: cell-based, mouse; conditions: 50 μM, after 3 days
Procedure: as §1

WaC3 cells = assay: Cell proliferation XTT assay, WaC3; assay type: cell-based, human; conditions: for growth response (in words): WaC3, 50 μM, course of 4 days
Procedure: as §1

Eμ-TCL1 CLL cells [2] = assay: Annexin V/DAPI flow cytofluorometry of cultured Eμ-TCL1 CLL cells; assay type: cell-based, mouse; conditions: 50 μM or 100 μM for 24 h
Procedure: PBMCs were non-lethally obtained from mice following the submandibular bleed and RBC lysis (Qiagen). Nonspecific staining was first blocked for 30 min at 4° C. with 300 μl FBS per 1.0×10^6 cells. Cell surface staining was accomplished by 30-min incubation at 4° C. with 1 μl per 1.0×10^6 cells of the following anti-mouse antibodies: B220-Alexa488, CD19-APC-Cy7 (BD Pharmingen), IgM-Alexa568 (Invitrogen), CD5-APC (eBioscience) and CD138-PE (BD Pharmingen). Viability staining was accomplished using DAPI exclusion (10 μg/ml; 200 μl/1×10^6 cells) during acquisition. Apoptotic cells were detected by Annexin V-PE staining (BD Pharmingen). Acquisition of B-cell and CLL cell populations was performed on a LSRII cytometer (BD Biosciences) harboring a custom configuration for the H. Lee Moffitt Cancer Center & Research Institute, having multiple laser beams and detectors for excitation of various fluorophores and wide emission spectrum detection. Mid-range Spherotech FL1 fluorescent rainbow beads (BD Biosciences) were used to maintain consistent gains for all parameters across time points. Analysis of cytometry data was achieved using FlowJo software version 7.6.1 (Tree Star Inc.).

MEC2 cells = assay: Cell proliferation XTT assay, MEC2; assay type: cell-based, human; conditions: MEC2, 50 μM, first 48 h
Procedure: as §1

MEC1 cells = assay: Cell proliferation XTT assay, MEC1; assay type: cell-based, human; conditions: MEC1, 50 μM, first 48 h
Procedure: as §1

[3] = system: Eμ-TCL1 mice with high CLL burden; assay type: in vivo; conditions: A-I06 60 mg/kg i.p.
Procedure: Older Eμ-TCL1 mice (age >8 months) with high CLL burden in the peripheral blood were identified by examining the percentage of CLL cells in PBMCs. These mice then received intraperitoneal injections with A-I06 (60 mg/kg) dissolved in Cremophor® ELP (vehicle, Sigma). The progression of CLL was monitored by flow cytofluorometry.

recombinant hIRE-1 = recombinant hIRE-1 (Homo sapiens (Human), UniProt O75460); assay: In vitro IRE-1 RNase FRET-suppression assay; assay type: biochemical
recombinant hIRE-1, sequence (O75460 547-977): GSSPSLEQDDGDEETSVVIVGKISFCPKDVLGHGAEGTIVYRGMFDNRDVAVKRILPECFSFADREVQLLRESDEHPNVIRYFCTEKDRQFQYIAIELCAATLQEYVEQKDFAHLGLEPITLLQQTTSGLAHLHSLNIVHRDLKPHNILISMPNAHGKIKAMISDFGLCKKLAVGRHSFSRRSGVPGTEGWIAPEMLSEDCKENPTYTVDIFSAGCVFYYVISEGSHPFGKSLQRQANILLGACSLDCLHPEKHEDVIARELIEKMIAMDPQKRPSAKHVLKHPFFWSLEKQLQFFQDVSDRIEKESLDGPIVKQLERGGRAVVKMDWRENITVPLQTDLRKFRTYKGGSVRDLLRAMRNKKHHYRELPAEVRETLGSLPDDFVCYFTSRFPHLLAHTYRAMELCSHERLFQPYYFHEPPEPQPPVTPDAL
Procedure: Fluorescence was read at various time points using a Biotek Synergy H1 plate reader with excitation and emission at 620 nm and 680 nm, respectively. […] All fluorescence readings were corrected using background values from wells containing only 120 μL of 50 nM XBP-1 RNA.
Fluorescence was read at various time points using a Biotek Synergy H1 plate reader with excitation and emission at 620 nm and 680 nm, respectively. […] All fluorescence readings were corrected using background values from wells containing only 120 mL of 50 nM XBP-1 RNA.

XBP-1 mRNA splicing = XBP-1 mRNA splicing by RT-PCR; assay type: cell-based; conditions: human WaC3 CLL cells, 24 h
Description: Total RNA was isolated using TRIzol reagent (Invitrogen). Complementary DNA was synthesized from RNA using Superscript II reverse transcriptase (Invitrogen).

[4] = Degradation (chemical stability) studies by HPLC/LCMS; assay type: physicochemical; conditions: over 12 hours, rt
Procedure: The degradation of analog 24 was plotted as a function of time upon exposure to FRET-suppression assay buffer at rt. Aliquots were partitioned with MeOH and injected onto LCMS (UV monitored at 320 nm) and peaks integrated relative to internal standard.
A 20 mM stock solution of B-I09 in DMSO was diluted to 0.5 mM in FRET assay buffer (20 mM HEPES, pH 7.5, 50 mM KOAc, 0.5 mM MgCl2, 3 mM DTT, 0.4% PEG) or cell culture media (RPMI supplemented with 10% fetal bovine serum). The FRET assay buffer and cell culture media solutions were incubated at room temperature and 37° C., respectively. At various time points, a 50 μL aliquot of each solution was added to 50 μL of methanol and the mixture analyzed by analytical reverse-phase HPLC (C18 4 mm×150 mm column, 1 mL/min flow rate) with acetonitrile/water (0.1% formic acid) as eluent. Absorbance was read at 320 nm and the degradation product (aldehyde) was identified by LCMS and co-injection with pure synthetic sample. Degradation studies were carried out in duplicate and data points reported as the mean of two values.

[5] = Aqueous solubility (stated in words); assay type: physicochemical
[6] = STF-083010 stability studies by RP-HPLC; assay type: physicochemical
Procedure: STF-083010 stability studies were performed using analytical reverse-phase high pressure liquid chromatography (RP-HPLC) with a C18 column (4 mm×150 mm) and a 10-90% linear gradient of acetonitrile in water (containing 0.1% formic acid) as eluent over 20 minutes (1 ml/min flow rate). Compounds were detected at λ=254 nm. Crystalline STF-083010 was analyzed on a standard Bruker X8 Apex2 CCD-based X-ray diffractometer, and the solid-state structure was solved and refined with the Bruker SHELXTL (version 6.12) software package. Diffraction data (excluding structure factors) for STF-083010 have been deposited with the Cambridge Crystallographic Data Centre as supplementary CCDC publication number 850879.

[7] = text values of Example 3, unit printed as mM, read-out: IC50 in FRET-suppression assay

Compound: O=Cc1c(O)ccc2ccccc12 [A-I06, 2-hydroxynaphthaldehyde]
cytotoxic effect (in words) (primary human CLL cells): significant cytotoxic effect
inhibition of XBP-1s expression (in words) (XBP-1s expression): requires a higher concentration to achieve complete inhibition
inhibition of XBP-1 expression (in words) (XBP-1s expression): can suppress the expression of XBP-1
inhibition of XBP-1 expression (in words) (XBP-1s expression; listed as 2): strong inhibition
growth inhibition (Eμ-TCL1 CLL cells [1]): ~70%
growth response (in words) (WaC3 cells): gradually decreased growth
GI50 (WaC3 cells; read-out: GI50 (50% growth inhibition concentration), WaC3 cells, 48 h, XTT): ~50 µM
apoptosis (in words) (Eμ-TCL1 CLL cells [2]): Increased apoptosis
growth inhibition (MEC2 cells): ~20%
growth inhibition (MEC1 cells): ~20%
apoptosis of CD5+/B220+ CLL cells in treated mice (in words) [3]: increase of Annexin V+ apoptotic CD5+/B220+CLL cells
apoptosis of CD5−/B220+ B cells in treated mice (in words) [3]: does not induce CD5−/B220+ B cells to undergo apoptosis
CLL burden (in words) ([3]; Day 0, 1, 12, 13): reduced CLL burden
IRE-1 RNase inhibitory activity in FRET-suppression assay (in words) (recombinant hIRE-1): weaker activity
IC50 (recombinant hIRE-1; [7]): 9.73 mM

Compound: O=Cc1c(O)ccc2ccccc12 [A-I07]
IRE-1 RNase inhibitory activity in FRET-suppression assay (in words) (recombinant hIRE-1): no appreciable inhibition at 20 mM

Compound: O=S(=O)(NCc1c(O)ccc2ccccc12)c1cccs1 [B-A05]
inhibition of XBP-1 expression (in words) (XBP-1s expression): did not significantly alter XBP-1 expression

IC50 (recombinant hIRE-1; 5 nM hIRE-1, 50 nM XBP-1 RNA, read-out: IC50 in FRET-suppression assay): 0.000155 mM and 0.000206 mM
Compound: Cc1cc(=O)oc2c(C=O)c(O)ccc12 [Compound 4μ8C, 7-hydroxy-4-methyl-2-oxo-2H-chromene-8-carbaldehyde]
inhibition of XBP-1s expression (in words) (XBP-1s expression): strong inhibition

Compound: C=CCOC(=O)N1CCc2c(c(=O)oc3c(C=O)c(O)ccc23)C1 [Compound 21b, Allyl 7-formyl-8-hydroxy-5-oxo-4,5-dihydro-1H-chromeno[3,4-c]pyridine-3(2H)-carboxylate]
IC50 (XBP-1s expression; Mus musculus, B-cell, LPS-stimulated B cells, 24 h, immunoblots, densitometry, approximate, read-out: IC50 for suppressing XBP-1s expression): ~5.1 µM

Compound: C=CCOC(=O)N1CCc2c(c(=O)oc3c(C4OCCCO4)c(O)ccc23)C1 [Compound 24, allyl 7-(1,3-dioxan-2-yl)-8-hydroxy-5-oxo-4,5-dihydro-1H-chromeno[3,4-c]pyridine-3(2H)-carboxylate]
inhibition of splicing of XBP-1 mRNA (in words) (XBP-1 mRNA splicing): highly effective
decomposition of the 1,3-dioxane moiety in assay buffer (in words) [4]: no significant decomposition

IRE-1 RNase inhibitory activity in FRET-suppression assay (in words) (recombinant hIRE-1): complete loss of potency below 20 mM
IC50 (recombinant hIRE-1; In vitro IRE-1 RNase inhibition by analogs of 21b, FRET-suppression assay, read-out: IC50): > 0.02 mM
Compound: C=CCOC(=O)N1CCc2c(c(=O)oc3c(C=O)c(OCc4ccccc4)ccc23)C1 [Compound 27, allyl 7-formyl-8-benzyloxy-5-oxo-4,5-dihydro-1H-chromeno[3,4-c]pyridine-3(2H)-carboxylate]

Compound: N=C(N)N1CCc2c(c(=O)oc3c(C=O)c(O)ccc23)C1 [Compound 34, 7-Formyl-8-hydroxy-5-oxo-4,5-dihydro-1H-chromeno[3,4-c]pyridine-3(2H)-carboximidamide]
inhibition of XBP-1s expression (in words) (XBP-1s expression): did not effectively inhibit XBP-1s expression
solubility (in words) [5]: solubility decreased

stability in 1:1 DMSO:water mixture (in words) ([6]; brief exposure): complete decomposition
IC50 (recombinant hIRE-1; [7]): 9.94 mM
Compound: O=S(=O)(N=Cc1c(O)ccc2ccccc12)c1cccs1 [STF-083010]
cytotoxic effect (in words) (primary human CLL cells): significant cytotoxic effect
inhibition of XBP-1 expression (in words) (XBP-1s expression): can suppress the expression of XBP-1
growth inhibition (Eμ-TCL1 CLL cells [1]): ~70%
growth response (in words) (WaC3 cells): gradually decreased growth
growth inhibition (MEC2 cells): ~20%
growth inhibition (MEC1 cells): ~20%
stability of DMSO stock solutions (in words) ([6]; repeated freeze-thaw cycles): readily hydrolyzed into precursors A-I06 and A-I07
